Values of other authors, collected in US7335681B2, “Amino ceramide-like compounds and therapeutic methods of use” (The Regents of the University of Michigan, priority 2001, dated 2008).

Legend:
[1] = tested on: Ehrlich ascites carcinoma cells
[2] = tested on: E. coli; details: PDMP treatment
[3] = tested on: PKC
[4] = tested on: GlcCer; details: in vivo

Which “antitumor effect in mice” value [1] does the source give for CCCCCCCCCC(=O)N[C@H](CN1CCOCC1)[C@H](O)c1ccccc1 [PDMP, 1R-phenyl-2R-decanoylamino-3-morpholino-1-propanol] here?
The value was “cure mice of cancer”.

What about the “adherence of E. coli to mammalian cells” value [2] of the same compound?
The value was “reduces the adherence”.

What about the “cellular content of PKC” value [3] of the same compound?
The value was “lower the cellular content of PKC”.

For CN(C)CCCN1c2ccccc2Sc2ccc(Cl)cc21 [chlorpromazine], which “tissue levels of GlcCer” value [4] is on record?
The value was “lower tissue levels of GlcCer”.
